Assay results from patent EP0293133A2, “Microorganisms and processes for the manufacture of antifungal tri-yne carbonates” (Merck & Co., Inc., priority 1987, dated 1988).
Like-named read-outs stand apart in the source and are kept apart here.

Experiments:
Experiment in all cases: agar dilution assay, antifungal activity (MIC)
Format in all cases: cell-based
Ca. stellatoidea = settings: Candida albicans; Ca. stellatoidea MY1018; yeast nitrogen base plus glucose agar, 28°C, 48 hours; read-out: MINIMUM INHIBITORY CONCENTRATION
Protocol: (§1) The antifungal activity of the compound of formula I was determined by an agar dilution assay as follows: […]
(§2) The compound of formula I was added to cooled, molten yeast nitrogen base plus glucose agar (1.0 ml of drug plus 9.0 ml agar). Appropriate solvent and media controls (drug free) also were prepared. Prepared plates were stored in the dark at room temperature overnight prior to use.
(§3) The yeast cultures, maintained in yeast maltose (YM) broth, were transferred to fresh YM medium and incubated overnight at 37°C with shaking (250 rpm). After incubation, each culture was diluted in sterile saline to yield final concentrations of 3 x 10⁵ to 3 x 10⁶ colony forming units (CFU)/ml. The isolates of Aspergillus and Penicillium were maintained on potato dextrose agar slants and spore suspensions made following vigourous shaking with sterile glass beads. The spore preparations were used as the inocula for these three filamentous fungi.
(§4) Each prepared plate was inoculated with 21 yeast-like and filamentous fungi using a Denley Multipoint Inoculator (Denley, Sussex, England). The inoculator delivers approximately 0.001 ml to the agar surface resulting in inoculation of from 3 x 10² to 3 x 10³ CFUs. The plates were incubated at 28°C for 48 hours. The minimum inhibitory concentrations (MICs) were recorded as the lowest concentration of drug showing no growth or less than three CFU/spot.

Sac. cerevisiae = settings: Saccharomyces cerevisiae; Sac. cerevisiae MY1027; yeast nitrogen base plus glucose agar, 28°C, 48 hours; read-out: MINIMUM INHIBITORY CONCENTRATION
Protocol: as §1, §2, §3, §4

A. flavus = settings: Aspergillus flavus; A. flavus MF0383; spore inoculum, yeast nitrogen base plus glucose agar, 28°C, 48 hours; read-out: MINIMUM INHIBITORY CONCENTRATION
Protocol: as §1, §2, §3, §4

Ca. pseudotropicallis = Ca. pseudotropicallis MY1040; yeast nitrogen base plus glucose agar, 28°C, 48 hours; read-out: MINIMUM INHIBITORY CONCENTRATION
Protocol: as §1, §2, §3, §4

Ca. tropicalis = settings: Candida tropicalis, 48 h, 28°C, read-out: MINIMUM INHIBITORY CONCENTRATION
Protocol: as §1, §2, §3, §4

Aspergillus fumigatus = Aspergillus fumigatus MF4839; spore inoculum, yeast nitrogen base plus glucose agar, 28°C, 48 hours; read-out: MINIMUM INHIBITORY CONCENTRATION
Protocol: as §1, §2, §3, §4

Candida albicans = settings: 48 h, 28°C, read-out: MINIMUM INHIBITORY CONCENTRATION
Protocol: as §1, §2, §3, §4

Torulopsis glabrata = settings: Nakaseomyces glabratus; Torulopsis glabrata MY1059; yeast nitrogen base plus glucose agar, 28°C, 48 hours; read-out: MINIMUM INHIBITORY CONCENTRATION
Protocol: as §1, §2, §3, §4

Ca. guilliermondii = settings: Meyerozyma guilliermondii; Ca. guilliermondii MY1019; yeast nitrogen base plus glucose agar, 28°C, 48 hours; read-out: MINIMUM INHIBITORY CONCENTRATION
Protocol: as §1, §2, §3, §4

Ca. rugosa = settings: Diutina rugosa; Ca. rugosa MY1022; yeast nitrogen base plus glucose agar, 28°C, 48 hours; read-out: MINIMUM INHIBITORY CONCENTRATION
Protocol: as §1, §2, §3, §4

Crypotococcus neoformans = settings: yeast nitrogen base plus glucose agar, 28°C, 48 hours, read-out: MINIMUM INHIBITORY CONCENTRATION
Protocol: as §1, §2, §3, §4

Penicillium italicum = Penicillium italicum MF2819; spore inoculum, yeast nitrogen base plus glucose agar, 28°C, 48 hours; read-out: MINIMUM INHIBITORY CONCENTRATION
Protocol: as §1, §2, §3, §4

Ca. parapsilosis = settings: Lodderomyces parapsilosis, 48 h, 28°C, read-out: MINIMUM INHIBITORY CONCENTRATION
Protocol: as §1, §2, §3, §4

Ca. krusei = settings: Pichia kudriavzevii; Ca. krusei MY1020; yeast nitrogen base plus glucose agar, 28°C, 48 hours; read-out: MINIMUM INHIBITORY CONCENTRATION
Protocol: as §1, §2, §3, §4

## C#CC#CC#CC(O)C1OC(=O)OC1CCCCCCC(=O)O (stereo not drawn) [compound of formula I]
Ca. stellatoidea
  MIC: 7.5 µg/mL
Sac. cerevisiae
  MIC: 1.88 µg/mL
A. flavus
  MIC: > 30 µg/mL
Ca. pseudotropicallis
  MIC: 0.94 µg/mL
Ca. tropicalis; Ca. tropicalis MY1011, yeast nitrogen base plus glucose agar
  MIC: 15 µg/mL
Ca. tropicalis; Ca. tropicalis MY1012, yeast nitrogen base plus glucose agar
  MIC: 1.88 µg/mL
Aspergillus fumigatus
  MIC: > 30 µg/mL
Candida albicans; Ca. albicans MY0992, yeast nitrogen base plus glucose agar
  MIC: 7.5 µg/mL
Candida albicans; Ca. albicans MY1013, yeast nitrogen base plus glucose agar
  MIC: 0.47 µg/mL
Candida albicans; Ca. albicans MY1029, yeast nitrogen base plus glucose agar
  MIC: 0.47 µg/mL
Candida albicans; Ca. albicans MY1055, yeast nitrogen base plus glucose agar
  MIC: 0.47 µg/mL
Candida albicans; Candida albicans MY1058, yeast nitrogen base plus glucose agar
  MIC: 0.47 µg/mL
Torulopsis glabrata
  MIC: 1.88 µg/mL
Ca. guilliermondii
  MIC: 7.5 µg/mL
Ca. rugosa
  MIC: 7.5 µg/mL
Crypotococcus neoformans; Cr. neoformans MY1146
  MIC: 3.75 µg/mL
Crypotococcus neoformans; Crypotococcus neoformans MY1051
  MIC: 1.88 µg/mL
Penicillium italicum
  MIC: 7.5 µg/mL
Ca. parapsilosis; Ca. parapsilosis MY1009, yeast nitrogen base plus glucose agar
  MIC: 1.88 µg/mL
Ca. parapsilosis; Ca. parapsilosis MY1010, yeast nitrogen base plus glucose agar
  MIC: 0.47 µg/mL
Ca. krusei
  MIC: 30 µg/mL
